How the values were obtained:
[1] = Particle characteristics of the prepared formulation by particle size analyzer (Dynamic Light Scattering, DLS); assay type: physicochemical; conditions: mRNA formulation; lipid compound:DMG-PEG:DSPC:Cholesterol=50:1.5:10:38.5; N/P ratio 10; buffer exchanged to PBS
Protocol: (§1) The required amounts of the raw materials were mixed in order to meet the N/P ratio (amine group of lipid/phosphate group of mRNA) of 10 and each compound of formulas A to V:DMG-PEG:DSPC:Cholesterol=50:1.5:10:38.5. Ethanol was added to the ethanol layer so that the molecular total of all raw materials was within 12.5 mM, and the aqueous phase and ethanol phase were mixed maintaining a volume ratio of 3:1. After the mixing, to reduce the total ethanol content, buffer exchange was performed as follows: The mixture solution was concentrated by centrifugation at 4,000 rpm to 1/3 using an Amicon-Ultra tube filter (Merk Millipore, UFC505096 or UFC805024, pore size: 50K, volume: 0.5 mL or 4 mL), then diluted with three times the volume of PBS and centrifuged to concentrate. This process was repeated six times to exchange the buffer.
(§2) The more concrete procedure is as follows: • 1) Two autoclaved tubes were prepared (tubes (A) and (B)). • 2) In tube (A), each compound of formulas A to V, DSPC, cholesterol and DMG-PEG in molar quantities calculated according to the experimental conditions were sequentially added and mixed by vortexing. • 3) In the ethanol phase, when necessary, ethanol was added so that the molecular total of all raw materials was within 12.5 mM. • 4) In tube (B), mRNA and 20 mM sodium acetate buffer (pH 4.6) (=prepared by diluting with 3M sodium acetate buffer to 20 mM and titrating to pH 4.6 using 1M HCl) were mixed. At that time, the ratio was calculated and added so that the aqueous phase was total three times the amount of the ethanol phase. • 5) Mixing of Tube (A) and Tube (B) was performed using a Microfluidics (Ignite, Precision Nanosystem) device. Microfluidics operating conditions were FRR (Flow Rate Ratio) of C:R=3:1 and TRR (Total Flow Rate) of 12 mL/min. • 6) The resulting mixture from step 5) was concentrated by centrifugation at 4,000 rpm to 1/3 using an Amicon-Ultra tube filter (50K), then diluted 3-fold with PBS and concentrated by centrifugation. This process was repeated 6 times for concentration to the desired volume.
(§3) • 1) For the prepared formulation, particle characteristics (i.e., Zeta-average particle size (Z-average), polydispersity index (PDI), and zeta-potential) were confirmed using a particle size analyzer (Dynamic Light Scattering, DLS), and the results are shown in Table 1 below. • 2) For the prepared formulation, mRNA encapsulation efficiency was confirmed through Ribo-green assay, and the results are shown in Table 1 below.

mRNA = mRNA encapsulation efficiency of the prepared formulation by Ribo-green assay; assay type: physicochemical; conditions: lipid compound:DMG-PEG:DSPC:Cholesterol=50:1.5:10:38.5, N/P ratio 10, buffer exchanged to PBS
Protocol: as §1, §2, §3

## CCCCCCC(CCCCCC)COC(=O)CCCCCCCNC(=O)CCN(C)CCCN(C)CCC(=O)NCCCCCCCC(=O)OCC(CCCCCC)CCCCCC [Example 8]
[1]
  PDI (PI): 0.188 ± 0.007
  Z-average: 110.3 ± 1.700 nm
  Zeta-potential: 4.83 ± 0.301 mV
mRNA
  Encapsulation efficiency: > 99.2%

## CCCCCCCCC(CCCCCC)COC(=O)CCCCCNC(=O)CCN(CCCN(C)C)CCC(=O)NCCCCCC(=O)OCC(CCCCCC)CCCCCCCC (centres unmarked) [Example 18]
[1]
  PDI (PI): 0.199 ± 0.007
  Z-average: 118.6 ± 0.565 nm
  Zeta-potential: 10.96 ± 1.293 mV
mRNA
  Encapsulation efficiency: > 93.75%

## CCCCCCCCC(CCCCCC)COC(=O)CCCCCNC(=O)CCN(C)CCCN(C)CCC(=O)NCCCCCC(=O)OCC(CCCCCC)CCCCCCCC (centres unmarked) [Example 10]
[1]
  PDI (PI): 0.171 ± 0.006
  Z-average: 118.2 ± 1.473 nm
  Zeta-potential: 6.72 ± 0.073 mV
mRNA
  Encapsulation efficiency: > 94.1%

## CCCCCCCCCOC(=O)CCCCCNC(=O)CCN(CCCN(C)C)CCC(=O)NCCCCCC(=O)OCCCCCCCCC [Example 17]
[1]
  PDI (PI): 0.167 ± 0.009
  Z-average: 127.3 ± 0.955 nm
  Zeta-potential: 17.22 ± 3.314 mV
mRNA
  Encapsulation efficiency: > 93.75%

## CCCCCCC(CCCCCC)COC(=O)CCCCCNC(=O)CCN(C)CCCN(C)CCC(=O)NCCCCCC(=O)OCC(CCCCCC)CCCCCC [Example 5]
[1]
  PDI (PI): 0.156 ± 0.009
  Z-average: 137.5 ± 1.364 nm
  Zeta-potential: -6.66 ± 0.365 mV
mRNA
  Encapsulation efficiency: > 96.9%

## CCCCCCC(CCCCCC)COC(=O)CCCCCCCNC(=O)CCN(CCN)CCC(=O)NCCCCCCCC(=O)OCC(CCCCCC)CCCCCC [Example 15]
[1]
  PDI (PI): 0.186 ± 0.015
  Z-average: 127.0 ± 0.325 nm
  Zeta-potential: -0.40 ± 0.239 mV
mRNA
  Encapsulation efficiency: > 93.75%

## CCCCCCCCC(CCCCCC)COC(=O)CCCCCNC(=O)CCN(CCC(=O)NCCCCCC(=O)OCC(CCCCCC)CCCCCCCC)CCN1CCOCC1 (centres unmarked) [Example 19]
[1]
  PDI (PI): 0.150 ± 0.022
  Z-average: 146.7 ± 1.226 nm
  Zeta-potential: -9.39 ± 0.137 mV
mRNA
  Encapsulation efficiency: > 93.75%

## CCCCCCC(CCCC)COC(=O)CCCCCNC(=O)CCN(C)CCCN(C)CCC(=O)NCCCCCC(=O)OCC(CCCC)CCCCCC (centres unmarked) [Example 4]
[1]
  PDI (PI): 0.231 ± 0.012
  Z-average: 147.8 ± 0.979 nm
  Zeta-potential: -7.87 ± 0.754 mV
mRNA
  Encapsulation efficiency: > 93.75%

## CCCCCCCCCCCCC(CCCCCCCCCC)COC(=O)CCCCCNC(=O)CCN(CCN)CCC(=O)NCCCCCC(=O)OCC(CCCCCCCCCC)CCCCCCCCCCCC (centres unmarked) [Example 16]
[1]
  PDI (PI): 0.128 ± 0.015
  Z-average: 128.9 ± 4.714 nm
  Zeta-potential: 0.50 ± 3.461 mV
mRNA
  Encapsulation efficiency: > 93.75%

## CCCCC/C=C\C/C=C\CCCCCCCCOC(=O)CCCCCNC(=O)CCN(C)CCCN(C)CCC(=O)NCCCCCC(=O)OCCCCCCCC/C=C\C/C=C\CCCCC [Example 21]
[1]
  PDI (PI): 0.350 ± 0.009
  Z-average: 120.0 ± 4.251 nm
  Zeta-potential: 4.43 ± 0.746 mV
mRNA
  Encapsulation efficiency: > 93.50%

## CCCCOC(=O)CCCCCNC(=O)CCN(C)CCCN(C)CCC(=O)NCCCCCC(=O)OCCCC [Example 6]
[1]
  PDI (PI): 0.190 ± 0.011
  Z-average: 125.9 ± 1.325 nm
  Zeta-potential: -6.02 ± 2.949 mV
mRNA
  Encapsulation efficiency: > 87.5%

## CCCCCCCCCCC(CCCCCCCC)COC(=O)CCCCCNC(=O)CCN(CCN)CCC(=O)NCCCCCC(=O)OCC(CCCCCCCC)CCCCCCCCCC (centres unmarked) [Example 14]
[1]
  PDI (PI): 0.166 ± 0.027
  Z-average: 113.8 ± 0.502 nm
  Zeta-potential: -10.39 ± 1.994 mV
mRNA
  Encapsulation efficiency: > 93.75%

## CCCCCCCCCCC(CCCCCCCC)COC(=O)CCCCCNC(=O)CCN(C)CCCN(C)CCC(=O)NCCCCCC(=O)OCC(CCCCCCCC)CCCCCCCCCC (centres unmarked) [Example 7]
[1]
  PDI (PI): 0.215 ± 0.018
  Z-average: 118.6 ± 2.099 nm
  Zeta-potential: 2.04 ± 0.365 mV
mRNA
  Encapsulation efficiency: > 93.75%

## CCCCCCCCC(OC(=O)CCCCCNC(=O)CCN(C)CCCN(C)CCC(=O)NCCCCCC(=O)OC(CCCCCCCC)C1CC1)C1CC1 (centres unmarked) [Example 22]
[1]
  PDI (PI): 0.3042 ± 0.026
  Z-average: 121.0 ± 4.06 nm
  Zeta-potential: 3.56 ± 3.67 mV
mRNA
  Encapsulation efficiency: > 93.20%
